Where a name gives a salt, the structure may show the parent alone. Read-outs that look alike come from different tables or passages of the source.
Assays:
[1] = biological target: 5-HT1BR (Homo sapiens (Human), UniProt P28222); type: cell-based; details: for Hill Coef.: 5-HT1BR agonist curve; for EC50: Table 3
[2] = Scale-up and solid-state stability study; type: physicochemical; details: ~10 mg staged at 40° C./75% RH for 1 day, analyzed by PXRD
Method: Scale up study of selected S-5-MAPB salts (Patterns 1A, 2A, and 10A) to −70 mg was completed. […] All three samples were then tested for their solid-state stability as shown below in Table 17. (API=5-MAPB HCl)
Scale up study of selected salts (S-5-MAPB Patterns 1A, 4A, and 8A) to −250 mg completed. Patterns 1A, 4A, and 8A were all scaled up successfully. All three samples were then tested for their solid-state stability as shown below in Table 19. (API=S-5-MAPB Pure Enantiomer)

[3] = biological target: T1, SERT (Rattus norvegicus (Rat), UniProt P31652); assay: In vitro rat synaptosome serotonin uptake inhibition assay (Examples 9, 58); type: biochemical; details: rat synaptosomes
Text: (§1) FIG. 7A is a graph showing results from an in vitro rat synaptosome serotonin uptake inhibition assay. […] Details and procedural information for this assay are described in Example 9. The x-axis is the log [dose] concentration measured in molar and the y-axis is the [^3H]-labeled 5-HT reuptake measured in percent.
as §1, with “176” for “7A”, “58.” for “9.”, “x-axis” for “x-axis is”, “concentration is” for “concentration”, “Molar units” for “molar”, “percent of maximum produced by the comparison releaser.” for “percent.”

[4] = biological target: T1, SERT; assay: In vitro rat synaptosome serotonin release (efflux) assay (Examples 9, 58); type: biochemical; details: rat synaptosomes
Text: as §1, with “7B” for “7A”, “release” for “uptake inhibition”, “release” for “reuptake”
as §1, with “177” for “7A”, “release” for “uptake inhibition”, “58.” for “9.”, “x-axis” for “x-axis is”, “release” for “reuptake”

[5] = biological target: human 5-HT transporter (hSERT) (Homo sapiens (Human), UniProt P31645); assay: Human serotonin transporter  assay ([3H]imipramine radioligand, CHO cells); type: binding
Method: EXAMPLE 8: Human Serotonin Transporter (SERT, SLC6A4) Functional Antagonist Uptake Assay
Benzofuran derivatives were evaluated for inhibiting the human 5-HT transporter (hSERT) as expressed in CHO cells using an antagonist radioligand assay (Tatsumi, M. et al. (1999), Eur. J. Pharmacol., 368: 277-283). […] Test compounds were assayed in three trials at […], and 0.94868 μM.
EXAMPLE 57: Human Serotonin Transporter (SERT, SLC6A4) Functional Antagonist Uptake Assay

[6] = biological target: serotonin (5-HT) transporter (SERT) (Rattus norvegicus (Rat), UniProt P31652); assay: Rat synaptosome SERT uptake inhibition assay ([3H]5-HT)
[7] = Human self-reported effects of non-racemic 5-MAPB (Good, Bad, Open ratings); type: in vivo
Method: The effects of non-racemic 5-MAPB HCl were tested by a healthy human individual at four different ratios of enantiomers plus the racemate as a control: • 54 mg S and 0 mg R (100% S) • 47 mg S and 7 mg R (about 87% S) • 36 mg S and 18 mg R (about 67% S) • 27 mg S and 27 mg R (about 50% S) • 7 mg S and 47 mg R (about 13% S)
Two trials were carried out at each ratio, except for 13% S where only one was conducted. Trials were at least 72 h apart.
5-MAPB HCl was dissolved in 1.5 ml distilled water and consumed in two halves, separated by 1 hour. Starting at 3 hours after administration, tablets of 250 mg ascorbic acid and capsules of 300 mg alpha lipoic acid were taken ad libitum (approximately every hour for a total of 4 administrations).
Measurements were made approximately every 2 hours until post 6 hours and the maximum ratings per session were analyzed. Additionally, an index of good drug effects versus emotional openness, calculated as (Open−Good)/(200, the theoretical maximum of Open+ Good), was constructed at each time point and the maximum analyzed. In healthy volunteers, Good Ratings can be considered a predictor of abuse liability. Accordingly, this index can be used as an indicator of the balance of a therapeutic effect (emotional openness) vs abuse liability.
Historic data of two trials 50 mg RS-5-MAPB Cl from the same individual were also included in the analysis for comparison.
Table 24 below indicates maximums for individual measures and for the open vs good index, averaged from all sessions (N=2, except for 13% S-5-MAPB where N=1). Qualitatively, all conditions produced subtle emotional effects, including decreases in negative affect and increases in stability of mood, without sensory distortion.

[8] = biological target: Human Trace Amine Associated Receptor (hTAAR1) (Homo sapiens (Human), UniProt Q96RJ0); assay: hTAAR1 agonist assay (DiscoverX cAMP Hunter); type: cell-based; details: for hTAAR1 maximum detected effects: seven concentrations between 0.05692 and 60 μM
[9] = biological target: dopamine transporter (DAT) (Rattus norvegicus (Rat), UniProt P23977); assay: Rat synaptosome DAT release assay ([3H]MPP+); details: read-out: dopamine Emax (maximum dopamine increase relative to reference drug)
[10] = S-5-MAPB salt scale-up (~250 mg, API=S-5-MAPB Pure Enantiomer)
[11] = Cheng Prusoff equation, read-out: SERT Ki
[12] = read-out: Inhibition of [3H]5-HT Uptake at SERT IC50, rat brain synaptosomes, 5 nM [3H]5-HT
[13] = one healthy human, 54 mg total 5-MAPB HCl oral in two halves 1 hour apart, session maximum averaged (N=2, 13% S N=1)
[14] = S-5-MAPB salt scale-up (~70 mg, API=5-MAPB HCl)

## CNC(C)C(=O)c1ccc2occc2c1 (racemic) [rac-BK-5-MAPB, 1-(benzofuran-5-yl)-2-(methylamino)propan-1-one hydrochloride]
[1]
  Hill Coef.: 0.91

## CCC(NC)C(=O)c1ccc2occc2c1 (racemic) [rac-BK-5-MBPB, 1-(benzofuran-5-yl)-2-(methylamino) butan-1-one]
[1]
  Hill Coef.: 1.01

## CNC(C)C(=O)c1ccc2ccoc2c1 (racemic) [rac-BK-6-MAPB, 1-(benzofuran-6-yl)-2-(methylamino)propan-1-one hydrochloride]
[1]
  Hill Coef.: 0.99

## CN[C@@H](C)Cc1ccc2occc2c1.O=P(O)(O)O (single isomer, unassigned) [H3PO4 (Pattern 4A), 5-MAPB Enantiomer H3PO4]
[2]; [10]
  PXRD Pattern (40° C./75% RH sample): 4A

## CN[C@@H](C)Cc1ccc2occc2c1.O=C(O)C(=O)O (single isomer, unassigned) [Oxalic (Pattern 8A), 5-MAPB Enantiomer oxalic acid]
[2]; [10]
  PXRD Pattern (40° C./75% RH sample): 8A

## CNC(C)C(=O)c1ccc2occc2c1 (single isomer, unassigned; (+)) [(+)-Bk-5-MAPB, 1-(benzofuran-5-yl)-2-(methylamino) propan-1-one]
[3]
  [3H]-labeled 5-HT reuptake (serotonin uptake inhibition): rapidly increases extracellular serotonin by inhibiting reuptake
[4]
  [3H]-labeled 5-HT release: rapidly increases extracellular serotonin by stimulating release
[1]
  Hill Coef.: 1.05

## CNC(C)C(=O)c1ccc2ccoc2c1 (single isomer, unassigned; (+)) [(+)-Bk-6-MAPB, 1-(benzofuran-6-yl)-2-(methylamino) propan-1-one]
[5]
  IC50: 110 µM
  Ki: 51 µM
[3]
  [3H]-labeled 5-HT reuptake (serotonin uptake inhibition): rapidly increases extracellular serotonin by inhibiting reuptake
[4]
  [3H]-labeled 5-HT release: rapidly increases extracellular serotonin by stimulating release

## CCC(NC)C(=O)c1ccc2occc2c1 (single isomer, unassigned; (-)) [(−)-BK-5-MBPB, 1-(benzofuran-5-yl)-2-(methylamino) butan-1-one]
[1]
  Hill Coef.: 1.6241

## CNC(C)C(=O)c1ccc2occc2c1 (single isomer, unassigned; (-)) [(−)-Bk-5-MAPB, 1-(benzofuran-5-yl)-2-(methylamino) propan-1-one]
[3]
  [3H]-labeled 5-HT reuptake (serotonin uptake inhibition): rapidly increases extracellular serotonin by inhibiting reuptake
[4]
  [3H]-labeled 5-HT release: rapidly increases extracellular serotonin by stimulating release
[1]
  Hill Coef.: 1.5

## CNC(C)C(=O)c1ccc2ccoc2c1 (single isomer, unassigned; (-)) [(−)-Bk-6-MAPB, 1-(benzofuran-6-yl)-2-(methylamino) propan-1-one]
[3]
  [3H]-labeled 5-HT reuptake (serotonin uptake inhibition): rapidly increases extracellular serotonin by inhibiting reuptake
[4]
  [3H]-labeled 5-HT release: rapidly increases extracellular serotonin by stimulating release
[1]
  Hill Coef.: 0.8339

## CN[C@H](C)Cc1ccc2ccoc2c1 (stereo in doubt) [Pattern R-6-MAPB, 1-(benzofuran-6-yl)-N-methylpropan-2-amine]
[5]; [11]
  Ki: 11 µM
[3]
  [3H]-labeled 5-HT reuptake (serotonin uptake inhibition): rapidly increases extracellular serotonin by inhibiting reuptake
[6]; [12]
  IC50: 0.623 ± 0.0312 µM
[4]
  [3H]-labeled 5-HT release: rapidly increases extracellular serotonin by stimulating release
[1]
  Hill Coef.: 1.14
  EC50: 1.48 µM

## CN[C@@H](C)Cc1ccc2occc2c1 [100% S-5-MAPB]
[7]; healthy human individual, 54 mg S and 0 mg R
  duration of effects: effects of less duration than conditions that included the R-enantiomer
[7]; [13]
  Bad (bad drug effects), maximum 0-100 rating: 1%
  Good (good drug effects), maximum 0-100 rating: 55%
  Open (emotional openness), maximum 0-100 rating: 65%

## Br.CNC(C)Cc1ccc2occc2c1 (stereo not shown) [HBr (Pattern 2A), 5-MAPB HBr]
[2]; [14]
  PXRD Pattern (40° C./75% RH sample): Pattern 2B

## CNC(C)Cc1ccc2occc2c1.Cl (stereo not shown) [HCl (Pattern 1A), 5-MAPB HCl]
[2]; [14]
  PXRD Pattern (40° C./75% RH sample): Pattern 1A
[2]; [10]
  PXRD Pattern (40° C./75% RH sample): 1A

## CNC(C)Cc1ccc2occc2c1.O=C(O)/C=C\C(=O)O (stereo not shown) [Maleic (Pattern 10A), 5-MAPB maleic acid]
[2]; [14]
  PXRD Pattern (40° C./75% RH sample): 10A

## CN[C@H](C)Cc1ccc2occc2c1 [Pattern R-5-MAPB, R-5-MAPB]
[5]; [11]
  Ki: 1.2 µM
[3]
  [3H]-labeled 5-HT reuptake (serotonin uptake inhibition): rapidly increases extracellular serotonin by inhibiting reuptake
[6]; [12]
  IC50: 0.15 ± 0.0086 µM
[4]
  [3H]-labeled 5-HT release: rapidly increases extracellular serotonin by stimulating release
[1]
  Hill Coef.: 1.13
  EC50: 0.981 µM

## CC[C@H](Cc1ccc2ccoc2c1)NC [Pattern R-6-MBPB, R-6-MBPB]
[8]
  hTAAR1 maximum detected effects: 0.9%
[9]
  Emax: ~25%
[6]
  IC50: 0.702 ± 0.262 µM

## CN[C@@H](C)Cc1ccc2occc2c1 [Pattern S-5-MAPB, S-5-MAPB]
[5]; [11]
  Ki: 1.5 µM
[3]
  [3H]-labeled 5-HT reuptake (serotonin uptake inhibition): rapidly increases extracellular serotonin by inhibiting reuptake
[6]; [12]
  IC50: 0.0604 ± 0.0028 µM
[4]
  [3H]-labeled 5-HT release: rapidly increases extracellular serotonin by stimulating release
[1]
  Hill Coef.: 1.08
  EC50: 0.161 µM

## CN[C@@H](C)Cc1ccc2ccoc2c1 [Pattern S-6-MAPB, S-6-MAPB]
[5]; [11]
  Ki: 3.1 µM
[3]
  [3H]-labeled 5-HT reuptake (serotonin uptake inhibition): rapidly increases extracellular serotonin by inhibiting reuptake
[6]; [12]
  IC50: 0.0909 ± 0.0059 µM
[4]
  [3H]-labeled 5-HT release: rapidly increases extracellular serotonin by stimulating release
[1]
  Hill Coef.: 1.21
  EC50: 0.102 µM

## CC[C@@H](Cc1ccc2ccoc2c1)NC [Pattern S-6-MBPB, S-6-MBPB]
[8]
  hTAAR1 maximum detected effects: 0.6%
[9]
  Emax: 72%
[6]
  IC50: 0.217 ± 0.0458 µM

## CCC(Cc1ccc2occc2c1)NC (stereo not shown) [RS-5-MBPB, 1-(benzofuran-5-yl)-N-methylbutan-2-amine]
[3]
  [3H]-labeled 5-HT reuptake (serotonin uptake inhibition): rapidly increases extracellular serotonin by inhibiting reuptake
[4]
  [3H]-labeled 5-HT release: rapidly increases extracellular serotonin by stimulating release

## NCCc1ccc(O)cc1 [p-Tyramine, reference compound]
[8]; positive control
  EC50: 1.14 µM
  hTAAR1 Hill constant: 0.7453
